This note sets out measurements from patent publication US20080269251A1, “Substituted Pyrazinone Derivatives as Alpha2C-Adrenoreceptor Antagonists” (priority 2005, published 2008).

In assay [1] the target is T1, human adrenergic-α2A receptor (Homo sapiens, UniProt P08913).
T1 construct: expressed in transfected cells; host or cells: CHO cells, stably transfected; membrane preparation
T1 sequence (P08913 1-465): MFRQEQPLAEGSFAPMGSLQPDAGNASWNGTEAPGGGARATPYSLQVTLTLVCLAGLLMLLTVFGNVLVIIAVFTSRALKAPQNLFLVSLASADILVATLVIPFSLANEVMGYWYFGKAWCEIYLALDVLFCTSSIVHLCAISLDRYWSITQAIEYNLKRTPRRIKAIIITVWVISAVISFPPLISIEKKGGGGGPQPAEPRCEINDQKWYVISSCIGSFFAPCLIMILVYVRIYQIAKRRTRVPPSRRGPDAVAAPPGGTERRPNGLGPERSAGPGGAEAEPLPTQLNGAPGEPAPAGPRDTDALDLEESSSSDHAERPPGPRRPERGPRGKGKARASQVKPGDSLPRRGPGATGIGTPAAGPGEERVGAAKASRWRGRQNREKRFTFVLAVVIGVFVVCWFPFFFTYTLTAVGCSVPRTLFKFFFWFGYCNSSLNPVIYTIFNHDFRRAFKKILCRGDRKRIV
Nature of the assay: Radioligand binding experiment for hα2A-adrenergic receptor ([3H]raulwolscine). Conditions: [3H]raulwolscine 1 nM, 60 minutes at 25° C.; for IC50: read-out: h-α2A pIC50 (converted). Put shortly:
(§1)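 CHO membranes expressing human α2A or α2C receptors were incubated with 1 nM [^3H]raulwolscine for 60 min at 25° C in glycylglycine 25 mM, pH 8.0, then filtered. Nonspecific binding was defined with 1 μM oxymetazoline for α2A and 1 μM spiroxatrine for α2C. pIC50 came from sigmoidal competition curves.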

In assay [2] the target is T2, 5HT-transporter (Homo sapiens, UniProt P31645).
T2 construct: Human platelet membranes (Oceanix Biosciences Corporation, Hanover, Md., USA) were thawed; tissue Oceanix Biosciences Corporation, Hanover, Md., USA; host or cells: human platelet membranes
The assay is described as follows: Binding experiment for the 5HT-transporter ([3H]paroxetine, human platelet membranes). Conditions: [3H]paroxetine 0.5 nM, 60 min at 25° C.; for IC50: read-out: h-5HTT pIC50 (converted). An outline of the steps:
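Competition binding of [3H]paroxetine to human platelet membranes in Tris-HCl 50 mM with 120 mM NaCl and 5 mM KCl; bound radioligand separated by GF/B filtration and counted.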

Assay [3] has as its target T3, human adrenergic-α2C receptor (Homo sapiens, UniProt P18825).
T3 construct: expressed in transfected cells; host or cells: CHO cells, stably transfected; membrane preparation
T3 sequence (P18825 1-462): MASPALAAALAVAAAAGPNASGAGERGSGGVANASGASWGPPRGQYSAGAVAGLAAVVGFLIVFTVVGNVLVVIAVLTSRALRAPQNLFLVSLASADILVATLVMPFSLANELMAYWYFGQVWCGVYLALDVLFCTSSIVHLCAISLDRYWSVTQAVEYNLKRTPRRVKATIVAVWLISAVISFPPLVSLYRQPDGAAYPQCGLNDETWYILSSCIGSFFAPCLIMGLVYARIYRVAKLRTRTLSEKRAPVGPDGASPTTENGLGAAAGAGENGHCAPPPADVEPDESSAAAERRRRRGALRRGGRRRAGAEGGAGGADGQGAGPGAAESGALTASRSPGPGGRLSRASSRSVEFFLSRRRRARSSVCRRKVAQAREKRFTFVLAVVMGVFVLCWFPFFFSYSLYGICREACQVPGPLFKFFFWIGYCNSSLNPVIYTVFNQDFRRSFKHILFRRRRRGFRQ
The assay is described as follows: Radioligand binding experiment for hα2C-adrenoceptor ([3H]raulwolscine). Conditions: [3H]raulwolscine 1 nM, 60 minutes at 25° C.; for IC50: read-out: h-α2C pIC50 (converted). Put shortly: as §1

T2 sequence (P31645 whole entry): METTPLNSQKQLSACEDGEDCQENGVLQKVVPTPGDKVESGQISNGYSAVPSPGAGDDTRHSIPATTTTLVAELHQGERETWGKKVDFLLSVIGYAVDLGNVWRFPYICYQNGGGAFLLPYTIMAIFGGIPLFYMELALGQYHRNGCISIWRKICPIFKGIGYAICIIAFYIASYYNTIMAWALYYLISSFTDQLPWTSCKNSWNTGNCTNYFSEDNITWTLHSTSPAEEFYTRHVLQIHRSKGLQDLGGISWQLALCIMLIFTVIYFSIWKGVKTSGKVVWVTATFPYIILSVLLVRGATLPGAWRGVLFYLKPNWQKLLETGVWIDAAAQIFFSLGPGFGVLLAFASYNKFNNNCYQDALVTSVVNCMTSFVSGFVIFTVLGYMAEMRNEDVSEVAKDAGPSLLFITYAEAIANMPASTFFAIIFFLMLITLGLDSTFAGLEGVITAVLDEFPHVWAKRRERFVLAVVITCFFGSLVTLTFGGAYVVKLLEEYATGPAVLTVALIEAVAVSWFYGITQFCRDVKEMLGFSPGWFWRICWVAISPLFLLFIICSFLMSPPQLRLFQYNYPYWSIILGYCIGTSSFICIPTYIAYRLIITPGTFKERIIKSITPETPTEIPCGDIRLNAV

As to `CCCC(=O)NCc1ccc(-n2ccnc(NC3CCN(Cc4ccc5ccccc5c4)CC3)c2=O)cc1OC` [1-25], the IC50 in assay [1] is 0.631 µM; in assay [2], 0.0126 µM; in assay [3], 0.0398 µM.
The matching figures for `CN(C)CCN(C)Cc1ccc(-n2ccnc(NC3CCN(Cc4ccc5ccccc5c4)CC3)c2=O)cc1` [1-39]: 0.0794 µM, 0.0631 µM and 0.0158 µM.
For the compound `CCCNC(=O)Cc1ccc(-n2ccnc(NC3CCN(Cc4ccc5ccccc5c4)CC3)c2=O)cc1` [1-11], the IC50 in assay [1] is 0.501 µM; in assay [2] it was 0.02 µM; in assay [3], 0.02 µM.
Take `CC(C)(C)C(=O)Cn1ccnc(NC2CCN(Cc3ccc4ccccc4c3)CC2)c1=O` [5-04]: the IC50 in assay [1] was 0.2 µM; in assay [2] it was 0.398 µM; in assay [3], 0.0398 µM.
The matching figures for `O=c1c(NC2CCN(Cc3ccc4ccccc4c3)CC2)nccn1-c1ccc(CNCC2CCCO2)c(F)c1` (stereo not drawn) [1-80]: 0.251 µM, 0.00316 µM and 0.00251 µM.
For `O=c1c(NC2CCN(Cc3ccc4ccccc4c3)CC2)nccn1CCCOCc1ccccc1` [3-11] the same measures were 0.251 µM, 0.02 µM and 0.0251 µM.
In the case of `O=c1c(NC2CCN(Cc3ccc4ccccc4c3)CC2)nccn1CCOC1CCCCO1` (stereo not drawn) [3-12], the IC50 in assay [1] is 0.631 µM; in assay [2], 0.0794 µM; in assay [3], 0.0794 µM.
Turning to `O=c1c(NC2CCN(Cc3ccc4ccccc4c3)CC2)nccn1CCN1CCOCC1` [2-09], the values for the IC50 in assay [1], in assay [2] and in assay [3] were 1 µM, 0.501 µM and 0.158 µM, respectively.
The matching figures for `O=C(Cc1ccccc1)NCc1ccc(-n2ccnc(NC3CCN(Cc4ccc5ccccc5c4)CC3)c2=O)cc1` [1-42]: 0.501 µM, 0.00501 µM and 0.0316 µM.
As to `O=c1c(NC2CCN(Cc3ccc4ccccc4c3)CC2)nccn1-c1ccc(COCC2CCCO2)cc1` (stereo not drawn) [3-14], the IC50 in assay [1] was 0.251 µM; in assay [2] it was 0.0158 µM; in assay [3], 0.00398 µM.
For `O=C(Cn1ccnc(NC2CCN(Cc3ccc4ccccc4c3)CC2)c1=O)NCCCc1ccccc1` [1-72] the same measures were 0.2 µM, 0.0631 µM and 0.0316 µM.
For `CCCC(=O)Nc1cccc(-n2ccnc(NC3CCN(Cc4ccc5ccccc5c4)CC3)c2=O)c1` [1-23] the same measures were 0.0398 µM, 0.00631 µM and 0.01 µM.
For `O=C(NCc1ccc(-n2ccnc(NC3CCN(Cc4ccc5ccccc5c4)CC3)c2=O)cc1)c1ccno1` [1-100] the same measures were 0.501 µM, 0.0126 µM and 0.00398 µM.
As for `CC(=O)Cn1ccnc(NC2CCN(Cc3ccc4ccccc4c3)CC2)c1=O` [5-03], the figures for the IC50 in assay [1], in assay [2] and in assay [3] were 0.2 µM, 1 µM and 0.1 µM, respectively.
The matching figures for `CC(C)(C)OC(=O)NCc1ccc(Cn2ccnc(N3CCN(Cc4cccc5ccccc45)CC3)c2=O)cc1` [9-25]: 0.631 µM, 1.26 µM and 0.398 µM.
For `CCCN(C)C(=O)Cn1ccnc(NC2CCN(Cc3ccc4ccccc4c3)CC2)c1=O` [1-13] the same measures were 0.501 µM, 2 µM and 0.0631 µM.
For `O=C(Cn1ccnc(NC2CCN(Cc3ccc4ccccc4c3)CC2)c1=O)NCCc1ccccc1` [1-71] the same measures were 0.316 µM, 0.126 µM and 0.02 µM.
`O=c1c(NC2CCN(Cc3ccc4ccccc4c3)CC2)nccn1-c1ccc2c(c1)OCCO2` [4-05]: the IC50 in assay [1] is 0.02 µM; in assay [2], 0.01 µM; in assay [3], 0.0316 µM.
For `CCOC(CCn1ccnc(NC2CCN(Cc3ccc4ccccc4c3)CC2)c1=O)OC` (stereo not drawn) [4-01] the same measures were 1.26 µM, 0.2 µM and 0.1 µM.
With `O=c1c(NC2CCN(Cc3ccc4ccccc4c3)CC2)nccn1CCCCO` [3-03], the IC50 in assay [1] is 0.398 µM; in assay [2], 0.158 µM; in assay [3], 0.0631 µM.
The matching figures for `O=c1[nH]c(-c2cccc(CNCCF)c2)c(Cl)nc1NC1CCN(Cc2ccc3ccccc3c2)CC1` [7-03]: 0.794 µM, 0.794 µM and 0.2 µM.
The matching figures for `O=c1c(NC2CCN(Cc3ccc4ccccc4c3)CC2)nccn1CCOc1ccccc1` [3-09]: 0.316 µM, 0.0126 µM and 0.1 µM.
`O=c1[nH]c(-c2cccc(CN3CCOCC3)c2)c(Cl)nc1NC1CCN(Cc2ccc3ccccc3c2)CC1` [7-08]: the figures for the IC50 in assay [1], in assay [2] and in assay [3] were 1.58 µM, 1.26 µM and 0.501 µM, respectively.
Turning to `O=C1CCCN1Cc1ccc(-n2ccnc(NC3CCN(Cc4ccc5ccccc5c4)CC3)c2=O)cc1` [2-01], the IC50 in assay [1] is 0.251 µM; in assay [2], 0.02 µM; in assay [3], 0.0316 µM.
For `CN(C)CCNC(=O)NCc1ccc(-n2ccnc(NC3CCN(Cc4ccc5ccccc5c4)CC3)c2=O)cc1` [1-44] the same measures were 0.0631 µM, 0.00794 µM and 0.0126 µM.
Take `O=C(CCn1ccnc(NC2CCN(Cc3ccc4ccccc4c3)CC2)c1=O)c1ccccc1` [5-08]: the IC50 is 0.1 µM in assay [1], 0.0158 µM in assay [2] and 0.0501 µM in assay [3].
`COCCCNC(=O)NCc1ccc(-n2ccnc(NC3CCN(Cc4ccc5ccccc5c4)CC3)c2=O)cc1` [1-46]: the IC50 in assay [1] is 0.501 µM; in assay [2], 0.0631 µM; in assay [3] it was 0.0398 µM.
`COC(=O)CCNC(=O)NCc1ccc(-n2ccnc(NC3CCN(Cc4ccc5ccccc5c4)CC3)c2=O)cc1` [1-47]: the “h-α2A pIC50” value in assay [1] is listed as 6.3. For the same compound, in assay [2], the “h-5HTT pIC50” value worked out at 7.6. The “h-α2C pIC50” value in assay [3] stood at 7.5.
For the compound `O=c1c(NC2CCN(Cc3ccc4ccccc4c3)CC2)nccn1-c1ccc(CN2CCC(F)CC2)c(F)c1` [2-13], the figures for the IC50 in assay [1], in assay [2] and in assay [3] were 0.0631 µM, 0.00631 µM and 0.00398 µM, respectively.
For `CCOC(=O)CCCn1ccnc(NC2CCN(Cc3ccc4ccccc4c3)CC2)c1=O` [3-06] the same measures were 0.2 µM, 0.0794 µM and 0.0631 µM.
For `CCCNC(=O)NCc1ccc(-n2ccnc(NC3CCN(Cc4ccc5ccccc5c4)CC3)c2=O)cc1` [1-40] the same measures were 1.26 µM, 0.0501 µM and 0.1 µM.
For `N#CCCn1ccnc(NC2CCN(Cc3ccc4ccccc4c3)CC2)c1=O` [5-05] the same measures were 0.398 µM, 0.316 µM and 0.2 µM.
Consider `O=c1[nH]c(-c2cccc(CN3CCC(F)CC3)c2)c(Cl)nc1NC1CCN(Cc2ccc3ccccc3c2)CC1` [7-06], for which the IC50 was 1.26 µM in assay [1], 1 µM in assay [2] and 0.251 µM in assay [3].
Turning to `CN1CCN(c2ccc(-n3ccnc(NC4CCN(Cc5ccc6ccccc6c5)CC4)c3=O)cc2)CC1` [2-03], the IC50 was 0.1 µM in assay [1], 0.0126 µM in assay [2] and 0.0251 µM in assay [3].
As for `CC(=O)NCCCC(=O)NCc1ccc(-n2ccnc(NC3CCN(Cc4ccc5ccccc5c4)CC3)c2=O)cc1` [1-62], in assay [1], the “h-α2A pIC50” value turned out to be 6.4. Besides, the “h-5HTT pIC50” value in assay [2] was found to be 7.5. Besides, the “h-α2C pIC50” value in assay [3] is listed as 7.3.
The matching figures for `O=C(NCc1ccc(-n2ccnc(NC3CCN(Cc4ccc5ccccc5c4)CC3)c2=O)cc1)Nc1ccccc1` [1-52]: 6.3, 8.1 and 7.2.
Regarding `O=C(CCN(c1nccn(CCC(=O)c2ccccc2)c1=O)C1CCN(Cc2ccnc3ccccc23)CC1)c1ccccc1` [9-28], the IC50 in assay [1] is greater than 10 µM; in assay [2], 0.2 µM; in assay [3], 0.631 µM.
